Our source for the IC50 values is US9321762B2, “Quinazoline compounds, method for preparing the same and use thereof” (DEVELOPMENT CENTER FOR BIOTECHNOLOGY, priority 2013, dated 2016).

The structures appear in SMILES notation. Like-named read-outs stand apart in the source and are kept apart here.

Assay [1] concerns the target T1, B-Raf kinase (Homo sapiens, UniProt P15056).
T1 construct: purchased Upstate Biotechnology
Put plainly: B-Raf kinase assay ([33P] incorporation into MEK1(K97R)). Format: biochemical. To be noted: class symbols; 8 μM ATP; read-out: IC50 against B-Raf kinase. The gist of the method: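 Recombinant B-Raf (5 ng) phosphorylating 500 ng MEK1(K97R) with 8 μM ATP plus [33P]ATP, pH 7.5 Tris buffer, 30 min at 30 °C. Radiolabel incorporation counted by filter-binding scintillation; IC50 from 3-fold serial dilutions run in duplicate.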

In assay [2] the target is T2, B-Raf(V600E) kinase (Homo sapiens, UniProt P15056, V600E).
T2 construct: purchased Upstate Biotechnology
T2 sequence (P15056 whole entry V600E): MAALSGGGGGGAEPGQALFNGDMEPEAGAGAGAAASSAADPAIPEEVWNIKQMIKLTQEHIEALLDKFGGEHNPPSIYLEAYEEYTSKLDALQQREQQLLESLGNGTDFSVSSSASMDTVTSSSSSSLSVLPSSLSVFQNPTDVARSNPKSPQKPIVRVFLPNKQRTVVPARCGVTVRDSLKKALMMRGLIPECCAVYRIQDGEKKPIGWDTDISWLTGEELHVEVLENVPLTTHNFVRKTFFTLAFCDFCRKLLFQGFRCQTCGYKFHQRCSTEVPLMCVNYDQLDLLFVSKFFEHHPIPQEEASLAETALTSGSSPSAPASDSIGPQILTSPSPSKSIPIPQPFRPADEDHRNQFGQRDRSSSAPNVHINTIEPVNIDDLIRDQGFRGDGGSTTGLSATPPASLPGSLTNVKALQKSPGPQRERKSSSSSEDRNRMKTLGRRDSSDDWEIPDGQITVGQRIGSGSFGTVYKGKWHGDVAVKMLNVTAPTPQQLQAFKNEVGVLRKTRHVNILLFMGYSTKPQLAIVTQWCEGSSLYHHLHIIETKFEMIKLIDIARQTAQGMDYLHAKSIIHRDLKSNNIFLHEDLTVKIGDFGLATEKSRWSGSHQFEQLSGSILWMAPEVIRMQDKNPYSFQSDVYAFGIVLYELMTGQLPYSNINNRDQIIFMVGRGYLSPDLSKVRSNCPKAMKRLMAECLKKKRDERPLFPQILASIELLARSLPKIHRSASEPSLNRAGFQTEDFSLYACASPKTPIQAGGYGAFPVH
Put plainly: B-Raf(V600E) kinase assay ([33P] incorporation into MEK1(K97R)). To be noted: class symbols; 8 μM ATP; read-out: IC50 against B-Raf(V600E) kinase. Format: biochemical. The gist of the method:
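Recombinant B-Raf(V600E) (5 ng) phosphorylating MEK1(K97R) (500 ng) with 8 μM ATP plus [33P]ATP in Tris/HCl pH 7.5 buffer, 30 min at 30 °C. Acid-stopped reactions were filter-captured and counted by scintillation; IC50 from 3-fold serial dilutions run in duplicate.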

In assay [3] the target is T3, C-Raf kinase (Homo sapiens, UniProt P04049).
T3 construct: purchased Upstate Biotechnology
T3 sequence (P04049 whole entry): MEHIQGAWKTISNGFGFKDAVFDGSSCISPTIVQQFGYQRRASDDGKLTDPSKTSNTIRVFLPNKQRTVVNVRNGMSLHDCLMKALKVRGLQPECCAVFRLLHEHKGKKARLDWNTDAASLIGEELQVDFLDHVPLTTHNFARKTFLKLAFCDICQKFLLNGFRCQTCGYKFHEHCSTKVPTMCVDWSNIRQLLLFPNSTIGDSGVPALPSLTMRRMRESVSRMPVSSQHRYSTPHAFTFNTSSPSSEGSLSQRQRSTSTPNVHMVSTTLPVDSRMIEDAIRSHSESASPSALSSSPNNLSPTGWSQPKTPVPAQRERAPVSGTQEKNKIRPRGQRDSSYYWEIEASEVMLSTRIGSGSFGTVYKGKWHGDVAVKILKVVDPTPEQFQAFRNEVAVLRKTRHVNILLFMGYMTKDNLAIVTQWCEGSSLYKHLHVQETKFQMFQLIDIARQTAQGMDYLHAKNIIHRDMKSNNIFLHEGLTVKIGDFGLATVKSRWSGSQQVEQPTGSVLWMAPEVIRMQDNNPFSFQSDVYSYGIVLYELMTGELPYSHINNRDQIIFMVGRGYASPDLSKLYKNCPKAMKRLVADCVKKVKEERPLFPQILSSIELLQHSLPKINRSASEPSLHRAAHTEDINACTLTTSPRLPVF
The assay can be described thus: C-Raf kinase assay ([33P] incorporation into MEK1(K97R)). To be noted: class symbols; 8 μM ATP; read-out: IC50 against C-Raf kinase. Format: biochemical. The method, boiled down: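 Recombinant C-Raf (2 ng) phosphorylated MEK1(K97R) (500 ng) with 8 μM ATP plus [33P]ATP in Tris pH 7.5 buffer for 30 min at 30 °C. Reactions were stopped with phosphoric acid, filtered and counted by scintillation. IC50 values came from 3-fold serial dilutions run in duplicate.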

Assay [4] concerns the target T4, VEGFR2 kinase (Homo sapiens, UniProt P35968).
T4 construct: VEGFR2 kinase domain alone, Millipore; purchased Millipore
Put plainly: VEGFR2 radiometric kinase assay. To be noted: given as bound; 100 μM ATP; read-out: Inhibition activity, IC50 VEGFR2. Format: biochemical. The gist of the method: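 Recombinant human VEGFR2 kinase domain (6.25 ng) phosphorylating poly(Glu-Tyr) 4:1 with 100 μM ATP plus [33P]ATP, in MOPS buffer pH 7.0, for 30 min at 30° C. Phosphoric-acid-stopped reactions were filter-captured and counted by scintillation for inhibition and IC50.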

Assay [5] has as its target T5, EGFR kinase (Homo sapiens, UniProt P00533).
T5 construct: EGFR kinase domain alone, Millipore; purchased Millipore
The assay can be described thus: EGFR radiometric kinase assay. It counts as biochemical. Particulars: 100 μM ATP, read-out: Inhibition activity, IC50 EGFR. The gist of the method: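 Recombinant EGFR kinase domain (25 ng) with poly(Glu-Tyr) substrate in pH 7.0 MOPS buffer with 10 mM MnCl2, 100 μM ATP plus [^33P]ATP. Reaction 30 min at 30 °C, stopped with phosphoric acid; filter-bound radioactivity counted by scintillation.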

Assay [6] deals with A375 melanoma cells and COLO205 colon cancer cells. The assay can be described thus: Cell proliferation assay (CellTiter-96). It counts as cell-based. To be noted: Homo sapiens; A375 or COLO205, 72 hours treatment; read-out: Cytotoxicity IC50 for A375 or COLO205. The method, boiled down: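 B-Raf(V600E) mutant A375 and COLO205 cells in DMEM with 10% FCS, plated 24 h, then given varying compound concentrations for 72 h at 37 °C. Viability by CellTiter-96 Aqueous One reagent (4 h), absorbance at 490 nm.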

T1 sequence (P15056 whole entry): as the sequence (P15056 whole entry V600E) above, with E600V counted along it
T5 sequence (P00533 712-979 limits assumed): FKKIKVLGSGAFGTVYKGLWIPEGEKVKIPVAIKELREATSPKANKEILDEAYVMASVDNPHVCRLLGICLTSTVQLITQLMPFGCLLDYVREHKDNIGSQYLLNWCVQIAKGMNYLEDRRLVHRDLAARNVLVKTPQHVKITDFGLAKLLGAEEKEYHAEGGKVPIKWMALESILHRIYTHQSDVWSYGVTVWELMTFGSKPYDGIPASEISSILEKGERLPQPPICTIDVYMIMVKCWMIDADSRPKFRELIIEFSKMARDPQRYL
T4 sequence (P35968 834-1162 limits assumed): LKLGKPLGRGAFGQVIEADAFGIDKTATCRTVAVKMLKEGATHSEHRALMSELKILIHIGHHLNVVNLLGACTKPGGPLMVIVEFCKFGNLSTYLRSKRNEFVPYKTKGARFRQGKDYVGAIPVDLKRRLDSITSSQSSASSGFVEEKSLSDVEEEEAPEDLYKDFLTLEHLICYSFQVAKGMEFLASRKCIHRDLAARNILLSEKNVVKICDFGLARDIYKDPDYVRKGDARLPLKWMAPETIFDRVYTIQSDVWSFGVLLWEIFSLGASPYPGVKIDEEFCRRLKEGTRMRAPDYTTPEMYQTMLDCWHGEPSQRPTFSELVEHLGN

In the case of `CCCS(=O)(=O)Nc1ccc(F)c(Nc2ncnc3ccc(-c4ccc(F)nc4)cc23)c1F` [compound 3, N-(2,4-difluoro-3-(6-(6-fluoropyridin-3-yl)-quinazolin-4-ylamino)phenyl)propane-1-sulfonamide], the IC50 in assay [1] is under 300 nM; in assay [2] it was under 300 nM; in assay [3] it was under 300 nM; in assay [4], over 3000 nM; in assay [5] (given as bound), over 3000 nM; in assay [6], under 2000 nM.
As to `CCCS(=O)(=O)Nc1ccc(F)c(Nc2ncnc3ccc(-c4ccncc4)cc23)c1F` [compound 12, N-(2,4-difluoro-3-(6-(pyridin-4-yl)-quinazolin-4-ylamino)phenyl)propane-1-sulfonamide], the IC50 in assay [1] is under 300 nM; in assay [2] it was under 300 nM; in assay [3], under 300 nM; in assay [4], over 3000 nM; in assay [5] (class symbols) it was 300 to 1000 nM; in assay [6], under 2000 nM.
With `CCCS(=O)(=O)Nc1ccc(F)c(Nc2ncnc3ccc(-c4ccc(N5CCOCC5)nc4)cc23)c1F` [compound 2, N-(2,4-difluoro-3-(6-(6-morpholinopyridin-3-yl)quinazolin-4-ylamino)phenyl)propane-1-sulfonamide], the IC50 was under 300 nM in assay [1]; under 300 nM in assay [2]; under 300 nM in assay [3]; over 3000 nM in assay [4]; 1000 to 3000 nM in assay [5] (class symbols); under 2000 nM in assay [6].
`CCCS(=O)(=O)Nc1ccc(F)c(Nc2ncnc3ccc(-c4cnc(N)nc4)cc23)c1F` [compound 50, N-(3-(6-(2-aminopyrimidin-5-yl)quinazolin-4-ylamino)-2,4-difluorophenyl)propane-1-sulfonamide]: the IC50 in assay [1] was under 300 nM; in assay [2] it was 300 to 1000 nM; in assay [3] it was 300 to 1000 nM; in assay [4], over 3000 nM; in assay [5] (given as bound), over 3000 nM; in assay [6], under 2000 nM.
As to `CCCS(=O)(=O)Nc1ccc(F)c(Nc2ncnc3ccc(-c4cccc(C(F)(F)F)n4)cc23)c1F` [compound 62, N-(2,4-difluoro-3-(6-(6-(trifluoromethyl)pyridin-2-yl)quinazolin-4-ylamino)phenyl)propane-1-sulfonamide], the IC50 in assay [1] is under 300 nM; in assay [2], under 300 nM; in assay [3] it was under 300 nM; in assay [4], over 3000 nM; in assay [5] (class symbols), 300 to 1000 nM; in assay [6] it was under 2000 nM.
